Values quoted from earlier work as cited in PubChem BioAssay AID1259410 (Chemical Carcinogenesis Research Information System (CCRIS), 2018).

Tested on: rodent tumor promotion studies, tumor incidence
Assay: CCRIS tumor promotion studies

## Clc1cnc(Oc2ccc(Oc3ncc(Cl)cc3Cl)cc2)c(Cl)c1
Carcinogen: N-NITROSODIETHYLAMINE, 55-18-5, Doses [Carcinogen]: 75 MG/KG BW ONCE, Doses [Promoter]: 0, 100O PPM IN DIET FOR DURATION OF STUDY BEGINNING 2 WK POST CARCINOGEN DOSE (STUDY DURATION: 74 WK), Route [Carcinogen]: INTRAPERITONEAL, Route [Promoter]: ORAL, Species: RAT, Strain/Sex: F344/MALE
  outcome: liver: adenoma; thyroid: follicular cell adenoma
Carcinogen: N-NITROSODIETHYLAMINE, 55-18-5, Doses [Carcinogen]: 75 MG/KG BW ONCE, Doses [Promoter]: 0, 330 PPM IN DIET FOR DURATION OF STUDY BEGINNING 2 WK POST CARCINOGEN DOSE (STUDY DURATION: 74 WK), Route [Carcinogen]: INTRAPERITONEAL, Route [Promoter]: ORAL, Species: RAT, Strain/Sex: F344/MALE
  outcome: liver: adenoma
Carcinogen: N-NITROSODIETHYLAMINE, 55-18-5, Doses [Carcinogen]: 75 MG/KG BW ONCE, Doses [Promoter]: 30 MG/KG IN CORN OIL 1/2 WK BEGINNING 2 WK POST CARCINOGEN DOSE AND CONTINUING FOR 71 WK (STUDY DURATION: 73 WK), Route [Carcinogen]: INTRAPERITONEAL, Route [Promoter]: INTRAPERITONEAL, Species: RAT, Strain/Sex: F344/MALE
  outcome: nasal cavity: carcinoma
Carcinogen: N-NITROSODIETHYLAMINE, 55-18-5, Doses [Carcinogen]: 90 MG/KG BW ONCE, Doses [Promoter]: 3 MG/KG BW IN CORN OIL 1/2 WK BEGINNING 2 WK POST CARCINOGEN DOSE AND CONTINUING FOR 24 WK (STUDY DURATION: 55 WK), Route [Carcinogen]: INTRAPERITONEAL, Route [Promoter]: INTRAGASTRIC, Species: MOUSE, Strain/Sex: C57BL/MALE
  outcome: liver: hepatocellular adenoma or carcinoma
Carcinogen: N-NITROSODIETHYLAMINE, 55-18-5, Doses [Carcinogen]: 90 MG/KG BW ONCE, Doses [Promoter]: 3 MG/KG BW IN CORN OIL 1/2 WK BEGINNING 2 WK POST CARCINOGEN DOSE AND CONTINUING FOR 24 WK (STUDY DURATION: 55 WK), Route [Carcinogen]: INTRAPERITONEAL, Route [Promoter]: INTRAGASTRIC, Species: MOUSE, Strain/Sex: DBA/MALE
  outcome: liver: hepatocellular adenoma or carcinoma
Carcinogen: N-NITROSODIETHYLAMINE, 55-18-5, Doses [Carcinogen]: 90 MG/KG BW ONCE, Doses [Promoter]: 3 MG/KG BW IN CORN OIL 1/2 WK BEGINNING 2 WK POST CARCINOGEN DOSE AND CONTINUING FOR 24 WK (STUDY DURATION: 55 WK), Route [Carcinogen]: INTRAPERITONEAL, Route [Promoter]: INTRAPERITONEAL, Species: MOUSE, Strain/Sex: C57BL/MALE
  outcome: liver: hepatocellular adenoma or carcinoma
Carcinogen: N-NITROSODIETHYLAMINE, 55-18-5, Doses [Carcinogen]: 90 MG/KG BW ONCE, Doses [Promoter]: 3 MG/KG BW IN CORN OIL 1/2 WK BEGINNING 2 WK POST CARCINOGEN DOSE AND CONTINUING FOR 24 WK (STUDY DURATION: 55 WK), Route [Carcinogen]: INTRAPERITONEAL, Route [Promoter]: INTRAPERITONEAL, Species: MOUSE, Strain/Sex: DBA/MALE
  outcome: liver: hepatocellular adenoma or carcinoma

## C=C(/C=C/C=C(/CO)[C@@H]1CC[C@]2([C@H](CCCO)/C(=C(/C)C=O)CC[C@]2(C)O)[C@@H]1O)CCC=C(C)C
Carcinogen: 7,12-DIMETHYLBENZ[A]ANTHRACENE, 57-97-6, Doses [Carcinogen]: 100 UG ONCE, Doses [Promoter]: 0, 400 NMOL 2/WK FOR 19 WK BEGINNING 1WK POST CARCINOGEN DOSE (STUDY DURATION: 20 WK), Route [Carcinogen]: DERMAL, Route [Promoter]: DERMAL, Species: MOUSE, Strain/Sex: CD-1/FEMALE
  outcome: skin: tumor

## O=C(O)O
Carcinogen: N-BUTYL-N-(4-HYDROXYBUTYL)NITROSAMINE, 3817-11-6, Doses [Carcinogen]: 0.05% IN DRINKING WATER FOR 4 WK, Doses [Promoter]: 0, 3% IN DIET FOR 32 WK BEGINNING 3 D POST LAST CARCINOGEN DOSE (STUDY DURATION: 36 WK, 3 D), Route [Carcinogen]: ORAL, Route [Promoter]: ORAL, Species: RAT, Strain/Sex: F344/MALE
  outcome: urinary bladder: papilloma, carcinoma
Carcinogen: N-BUTYL-N-(4-HYDROXYBUTYL)NITROSAMINE, 3817-11-6, Doses [Carcinogen]: 0.05% IN DRINKING WATER FOR 4 WK, Doses [Promoter]: 0, 3.36% IN DIET BEGINNING POST LAST CARCINOGEN DOSE AND CONTINUING FOR 32 WK (STUDY DURATION: 37 WK), Route [Carcinogen]: ORAL, Route [Promoter]: ORAL, Species: RAT, Strain/Sex: WISTAR/MALE
  outcome: urinary bladder: papilloma
Carcinogen: N-BUTYL-N-(4-HYDROXYBUTYL)NITROSAMINE; 3817-11-6; Doses [Carcinogen]: 0.05% IN DRINKING WATER FOR 4 WK; Doses [Promoter]: 0; 4% IN DIET BEGINNING POST LAST CARCINOGEN DOSE AND CONTINUING FOR 32 WK STUDY DURATION: 37 WK), Route [Carcinogen]: ORAL, Route [Promoter]: ORAL, Species: RAT, Strain/Sex: WISTAR/MALE
  outcome: urinary bladder: papilloma
Carcinogen: O-PHENYLPHENOL, 90-43-7, Doses [Carcinogen]: 1.25% IN DIET FOR 104 WK, Doses [Promoter]: 0, 0.16% IN DIET FOR 104 WK (STUDY DURATION: 104 WK), Route [Carcinogen]: ORAL, Route [Promoter]: ORAL, Species: RAT, Strain/Sex: F344/MALE
  outcome: bladder: carcinoma
Carcinogen: O-PHENYLPHENOL, 90-43-7, Doses [Carcinogen]: 1.25% IN DIET FOR 104 WK, Doses [Promoter]: 0, 0.32% IN DIET FOR 104 WK (STUDY DURATION: 104 WK), Route [Carcinogen]: ORAL, Route [Promoter]: ORAL, Species: RAT, Strain/Sex: F344/MALE
  outcome: bladder: carcinoma
Carcinogen: O-PHENYLPHENOL, 90-43-7, Doses [Carcinogen]: 1.25% IN DIET FOR 104 WK, Doses [Promoter]: 0, 0.64% IN DIET FOR 104 WK (STUDY DURATION: 104 WK), Route [Carcinogen]: ORAL, Route [Promoter]: ORAL, Species: RAT, Strain/Sex: F344/MALE
  outcome: bladder: carcinoma

## O=C1[C@H]2CC=CC[C@H]2C(=O)N1SC(Cl)(Cl)Cl
Carcinogen: DIETHYLNITROSAMINE, 55-18-5, N-METHYL-N-NITROSOUREA, 684-93-5, N-BIS(2-HYDROXYPROPYL)NITROSAMINE, 53609-64-6, Carcinogen: DIETHYLNITROSAMINE, 55-18-5, N-METHYL-N-NITROSOUREA, 684-93-5, N-BIS(2-HYDROXYPROPYL)NITROSAMINE, 53609-64-6, Doses [Carcinogen]: 100 MG/KG DEN ONCE THEN 20 MG/KG MNU 2/WK FOR 2 WK FOLLOWED BY 0.1% DHPN IN DRINKING WATER FOR 2 WK, Doses [Promoter]: 0, 4000 PPM IN DIET BEGINNING POST CARCINOGEN TREATMENT AND CONTINUING FOR 16 WK (STUDY DURATION: 20 WK), Route [Carcinogen]: INTRAPERITONEAL, INTRAPERITONEAL, ORAL, Route [Carcinogen]: INTRAPERITONEAL, INTRAPERITONEAL, ORAL, Route [Promoter]: ORAL, Species: RAT, Strain/Sex: F344/MALE
  outcome: kidney: adenoma

## Clc1ccc(-c2ccc(Cl)c(Cl)c2)cc1Cl
Carcinogen: 7,12-DIMETHYLBENZ[A]ANTHRACENE, 57-97-6, Doses [Carcinogen]: 10 MG IN 0.5 ML CORN OIL ONCE, Doses [Promoter]: 0, 10 MG/KG BW ONCE AT TIME OF CARCINOGEN DOSE THEN 500 UG/G OF FAT IN DIET FOR 1 WK ADMINISTERED TO RATS FED HIGH-FAT (, Route [Carcinogen]: GAVAGE, Route [Promoter]: GAVAGE, ORAL, Species: RAT, Strain/Sex: SPRAGUE-DAWLEY/FEMALE
  outcome: mammary gland: tumor
Carcinogen: 7,12-DIMETHYLBENZ[A]ANTHRACENE, 57-97-6, Doses [Carcinogen]: 10 MG IN 0.5 ML CORN OIL ONCE, Doses [Promoter]: 0, 10 MG/KG BW ONCE AT TIME OF CARCINOGEN DOSE THEN 500 UG/G OF FAT IN DIET FOR 1 WK ADMINISTERED TO RATS FED LOW FAT (5, Route [Carcinogen]: GAVAGE, Route [Promoter]: GAVAGE, ORAL, Species: RAT, Strain/Sex: SPRAGUE-DAWLEY/FEMALE
  outcome: mammary gland: tumor

## CCCCCCCCCCCCCCCCCCCC
Carcinogen: 7,12-DIMETHYLBENZ(A)ANTHRACENE, Doses [Carcinogen]: TOP, Route [Carcinogen]: DERMAL, Route [Promoter]: DERMAL, Species: MOUSE, Strain/Sex: MALE,FEMALE
  outcome: integumentary system (skin)

## S=c1nc[nH]c2nc[nH]c12
Carcinogen: UV IRRADIATION, Doses [Carcinogen]: 0.53 J/CM2 INCREASED BY 20% EVERY 2 WK TO 1.60 J/CM2 AND MAINTAINED AT 1.60 J/CM2 UNTIL DEATH, ADMINISTERED 5 D/WK FOR 1, Doses [Promoter]: 0, 15 UG/G BEGINNING 2 WK POST FIRST CARCINOGEN DOSE ADMINISTERED 2 HR PRIOR TO EACH CARCINOGEN DOSE (STUDY DURATION: 30, Route [Carcinogen]: DERMAL, Route [Promoter]: INTRAPERITONEAL, Species: MOUSE, Strain/Sex: SKH/HRL/FEMALE
  outcome: skin: tumor

## O=c1cc(-c2ccccc2)oc2ccc3ccccc3c12
Carcinogen: (+/-)-TRANS-7,8-DIHYDROBENZO[A]PYRENE-7,8-DIOL, 61443-57-0, Doses [Carcinogen]: 1 UG CO-ADMINISTERED WITH PROMOTER DOSE, Doses [Promoter]: 1 UG INJECTED INTO NEWLY HATCHED SAC-FRY CO-ADMINISTERED WITH CARCINOGEN DOSE (STUDY DURATION: 9 MO), Route [Carcinogen]: INJECTION, Route [Promoter]: INJECTION, Species: FISH, Strain/Sex: RAINBOW TROUT/MALE,FEMALE
  outcome: liver: tumor
Carcinogen: DIETHYLNITROSAMINE, 55-18-5, Doses [Carcinogen]: 200 MG/KG BW ONCE (STUDY DURATION: 28 WK), Doses [Promoter]: 1% IN DIET FOR 26 WK BEGINNING 2 WK POST LAST CARCINOGEN DOSE, 2/3 PARTIAL HEPATECTOMY PERFORMED AT WEEK 3 (STUDY DURATI, Route [Carcinogen]: INTRAPERITONEAL, Route [Promoter]: ORAL, Species: RAT, Strain/Sex: F344/MALE
  outcome: liver: tumor
Doses [Carcinogen]: 0.5 PPM AQUEOUS SOLUTION FOR 30 MIN EXPOSURE OF EMBRYOS 21 D AFTER FERTILIZATION, Doses [Promoter]: 0.05% IN DIET FOR 8 WK (STUDY DURATION: 1 YR), Route [Carcinogen]: IMMERSION, Route [Promoter]: ORAL, Species: FISH, Strain/Sex: MT. SHASTA RAINBOW TROUT
  outcome: liver: hepatocellular carcinoma or mixed carcinoma or hepatocellular adenoma
